Counter-ions that a name gives are not always drawn. Like-named read-outs stand apart in the source and are kept apart here.
Target: SARS-CoV-2 3CLpro (Severe acute respiratory syndrome coronavirus 2, UniProt P0DTD1)
Test: biochemical
Type: biochemical
Parameters: Replicate_1 / Replicate_2 / mean / mean (LOPAC_screen_w_protease): unit not given here
Settings: for inhibition at 5 µM: 4 h
[1] = sheet LOPAC_screen_w_protease, primary screen with protease, compound at 5 µM, mean of two replicates
[2] = sheet LOPAC_screen_w_protease, primary screen with protease, compound at 5 µM, replicate 1
[3] = sheet LOPAC_screen_w_protease, primary screen with protease, compound at 5 µM, replicate 2
[4] = sheet LOPAC_screen_w_protease, LOPAC1280 primary screen with protease, 5 µM compound, mean of the two replicates
[5] = sheet LOPAC_screen_w_protease, LOPAC1280 primary screen with protease, 5 µM compound, replicate 1
[6] = sheet LOPAC_screen_w_protease, LOPAC1280 primary screen with protease, 5 µM compound, replicate 2
[7] = sheet LOPAC_screen_w_protease, LOPAC1280 primary screen at 5 µM, with protease, mean of the two replicates
[8] = sheet LOPAC_screen_w_protease, LOPAC1280 primary screen at 5 µM, with protease, replicate 1
[9] = sheet LOPAC_screen_w_protease, LOPAC1280 primary screen at 5 µM, with protease, replicate 2
[10] = sheet LOPAC_screen_w_protease, primary screen with protease, mean of two replicates
[11] = sheet LOPAC_screen_w_protease, primary screen with protease, replicate 1
[12] = sheet LOPAC_screen_w_protease, primary screen with protease, replicate 2
[13] = LOPAC1280 primary screen with protease, 5 µM compound, replicate 1, read-out: Replicate_1 (LOPAC_screen_w_protease)
[14] = LOPAC1280 primary screen with protease, 5 µM compound, replicate 2, read-out: Replicate_2 (LOPAC_screen_w_protease)

CCN(CC)c1ncnc2c1ncn2[C@@H]1O[C@H](COP(=O)([O-])OP(=O)([O-])C(Br)(Br)P(=O)([O-])O)[C@@H](O)[C@H]1O.[Na+].[Na+].[Na+] [ARL 67156 trisodium salt]
mean [1]: 2.893 | Replicate_1 [2]: 2.692 | Replicate_2 [3]: 3.094

Cc1nnc2ccc(-c3cccc(C(F)(F)F)c3)nn12
mean [4]: 4.5531 | Replicate_1 [5]: 2.841 | Replicate_2 [6]: 6.265

O=C(O)C1CN(CCCP(=O)(O)O)CCN1 (racemic) [(±)-CPP]
mean [4]: 4.122 | Replicate_1 [5]: 5.3739 | Replicate_2 [6]: 2.869

CCCCCCCCCC[Si](C)(C)CCC(=O)NC(Cc1ccc(C)cc1)c1ccccc1 (centres unmarked) [Sandoz 58-035]
mean [7]: 0.7639 | Replicate_1 [8]: 1.25 | Replicate_2 [9]: 0.2774

Br.Cc1o[nH]c(=O)c1CC(N)C(=O)O (racemic) [(±)-AMPA hydrobromide]
mean [10]: 2.246 | Replicate_1 [11]: 3.765 | Replicate_2 [12]: 0.7264

OC(CCN1CCCCC1)(c1ccccc1)C1CCCCC1 (centres unmarked) [Trihexyphenidyl hydrochloride]
inhibition at 5 µM (read-out: Replicate_1 (LOPAC_screen_w_protease)): 1.61% | inhibition at 5 µM (read-out: Replicate_2 (LOPAC_screen_w_protease)): 1.86%

CN(C)CCOC(C)(c1ccccc1)c1ccccn1 (centres unmarked) [Doxylamine succinate]
inhibition at 5 µM (sheet LOPAC_screen_w_protease, LOPAC1280 at 5 µM, mean of two replicates, read-out: mean): 1.3% | inhibition at 5 µM (sheet LOPAC_screen_w_protease, LOPAC1280 at 5 µM, replicate 1, read-out: Replicate_1): 1.58% | inhibition at 5 µM (sheet LOPAC_screen_w_protease, LOPAC1280 at 5 µM, replicate 2, read-out: Replicate_2): 1.01%

N[C@@H](Cc1c[nH]c2ccc(O)cc12)C(=O)O [5-Hydroxy-L-tryptophan]
inhibition at 5 µM (sheet LOPAC_screen_w_protease, primary screen at 5 µM, mean of two replicates, read-out: mean (LOPAC screen with protease)): 14.5% | inhibition at 5 µM (sheet LOPAC_screen_w_protease, primary screen at 5 µM, replicate 1, read-out: Replicate_1 (LOPAC screen with protease)): 16.3% | inhibition at 5 µM (sheet LOPAC_screen_w_protease, primary screen at 5 µM, replicate 2, read-out: Replicate_2 (LOPAC screen with protease)): 12.8%

COC(=O)[C@@H](N)Cc1ccc(O)c(O)c1.Cl
mean (sheet LOPAC_screen_w_protease, primary screen of LOPAC1280 at 5 µM with protease, mean of the two replicates): 3.737 | Replicate_1 (sheet LOPAC_screen_w_protease, primary screen of LOPAC1280 at 5 µM with protease, replicate 1): 4.528 | Replicate_2 (sheet LOPAC_screen_w_protease, primary screen of LOPAC1280 at 5 µM with protease, replicate 2): 2.946

Clc1ccc2c(c1)C(N1CCNCC1)=Nc1ccccc1O2 [Amoxapine]
inhibition at 5 µM (sheet LOPAC_screen_w_protease, primary screen of LOPAC1280 at 5 µM with protease, mean of the two replicates, read-out: mean): 3.27% | inhibition at 5 µM (sheet LOPAC_screen_w_protease, primary screen of LOPAC1280 at 5 µM with protease, replicate 1, read-out: Replicate_1): 3.65% | inhibition at 5 µM (sheet LOPAC_screen_w_protease, primary screen of LOPAC1280 at 5 µM with protease, replicate 2, read-out: Replicate_2): 2.89%

CCCn1c(=O)c2[nH]c(C3CCCC3)nc2n(CCCOC(=O)c2ccc(S(=O)(=O)F)cc2)c1=O [FSCPX]
mean (LOPAC screen with protease) (sheet LOPAC_screen_w_protease, primary screen at 5 µM, mean of two replicates): 6.832 | Replicate_1 (LOPAC screen with protease) (sheet LOPAC_screen_w_protease, primary screen at 5 µM, replicate 1): 8.115 | Replicate_2 (LOPAC screen with protease) (sheet LOPAC_screen_w_protease, primary screen at 5 µM, replicate 2): 5.548

Cl.NCCCCNS(=O)(=O)c1ccc2c(Cl)cccc2c1
mean [7]: 0.6799 | Replicate_1 [8]: 0.88 | Replicate_2 [9]: 0.4798

OC[C@H]1O[C@@H](n2cnc3c(NC4CCCC4)ncnc32)[C@H](O)[C@@H]1O [N6-Cyclopentyladenosine]
inhibition at 5 µM (sheet LOPAC_screen_w_protease, primary screen with protease, mean of two replicates, read-out: mean): 2.13% | inhibition at 5 µM (sheet LOPAC_screen_w_protease, primary screen with protease, replicate 1, read-out: Replicate_1): 1.59% | inhibition at 5 µM (sheet LOPAC_screen_w_protease, primary screen with protease, replicate 2, read-out: Replicate_2): 2.67%

CCOC(=O)c1ncn2c1CN(C)C(=O)c1cc(F)ccc1-2 [Flumazenil]
inhibition at 5 µM (sheet LOPAC_screen_w_protease, primary screen with protease, compound at 5 µM, mean of two replicates, read-out: mean): 3.1% | inhibition at 5 µM (sheet LOPAC_screen_w_protease, primary screen with protease, compound at 5 µM, replicate 1, read-out: Replicate_1): 5.09% | inhibition at 5 µM (sheet LOPAC_screen_w_protease, primary screen with protease, compound at 5 µM, replicate 2, read-out: Replicate_2): 1.11%

N[C@@H]1CON=C1O [D-Cycloserine]
inhibition at 5 µM [13]: 2.63% | inhibition at 5 µM [14]: 0.045% | mean (LOPAC_screen_w_protease) (LOPAC1280 primary screen with protease, 5 µM compound, mean of two replicates): 1.34

CC1CN(S(=O)(=O)c2cccc3cnccc23)CCN1.Cl.Cl (centres unmarked)
mean [10]: 2.412 | Replicate_1 [11]: 3.532 | Replicate_2 [12]: 1.292

CN1CCN(CCCN2c3ccccc3Sc3ccc(C(F)(F)F)cc32)CC1 [Trifluoperazine dihydrochloride]
inhibition at 5 µM (sheet LOPAC_screen_w_protease, primary screen with protease, 5 µM, mean of two replicates, read-out: mean): 0.187% | inhibition at 5 µM (sheet LOPAC_screen_w_protease, primary screen with protease, 5 µM, replicate 1, read-out: Replicate_1): 0.0814% | inhibition at 5 µM (sheet LOPAC_screen_w_protease, primary screen with protease, 5 µM, replicate 2, read-out: Replicate_2): 0.293%

MDL 26,630 trihydrochloride
mean [4]: 6.178 | Replicate_1 [5]: 5.659 | Replicate_2 [6]: 6.697

CC(C)NC(C)Cc1ccc(I)cc1 (centres unmarked) [Iofetamine hydrochloride]
inhibition at 5 µM (read-out: Replicate_1): 3.54% | inhibition at 5 µM (read-out: Replicate_2): 3.79% | inhibition at 5 µM (read-out: mean): 3.67%

COC(=O)C(N)Cc1ccc(Cl)cc1.Cl (racemic)
mean [7]: 0.6507 | Replicate_1 [8]: 2.428 | Replicate_2 [9]: -1.1263

CC(C)C[C@H](NC(=O)[C@@H](O)[C@H](N)Cc1ccccc1)C(=O)O [Bestatin hydrochloride]
inhibition at 5 µM [13]: 1.1% | inhibition at 5 µM [14]: 3.15% | mean (LOPAC_screen_w_protease) (LOPAC1280 primary screen with protease, 5 µM compound, mean of the two replicates): 2.127

Oc1cc2c(cc1O)[C@H]1c3ccccc3CN[C@@H]1CC2 (racemic) [Dihydrexidine hydrochloride]
inhibition at 5 µM (read-out: Replicate_1 (LOPAC screen with protease)): 96.2% | inhibition at 5 µM (read-out: Replicate_2 (LOPAC screen with protease)): 98.8% | inhibition at 5 µM (read-out: mean (LOPAC screen with protease)): 97.5%

CCN(CC)C(C)C(=O)N1c2ccccc2Sc2ccccc21.Cl (centres unmarked)
mean [1]: 2.78 | Replicate_1 [2]: 5.208 | Replicate_2 [3]: 0.3523
